In US20130210156A1, “Uniform, Functionalized, Cross-Linked Nanostructures for Monitoring pH” (priority 2010, published 2013):

Experiments:
[1] = excited between 488 nm and 530 nm; cited from earlier work
[2] = pH-responsive UV-Vis and fluorescence emission of MCNs, SCKs and small molecule cross-linkers; type: physicochemical; conditions: small molecules in buffer at the surveyed pH values (5.8 to 8.6)
Experimental: The UV-vis absorption spectra of MCNs were collected at room temperature using a Varian Cary 100 Bio UV-visible spectrophotometer and plastic cuvettes with 10 mm of light path. For each MCN absorption spectroscopy measurement, the corresponding buffer solution (5 mM with 5 mM of NaCl) outside the dialysis tubing was used as control.
The fluorescence spectra of MCNs were obtained at room temperature using a Varian Cary Eclipse fluorescence spectrophotometer. All fluorescence spectra from MCN solutions were measured at optical densities at the excitation wavelength. If not specially mentioned otherwise, an excitation wavelength of the observed maximum absorption peak was used. Each fluorescence spectrum was normalized with respect to the absorbed light intensity at the excitation wavelength.
To a solution of PEO45-b-PNAS105-b-PS45 MCMs (30.0 mg of block copolymer precursor, 127 μmol of NAS residues) in 60.0 mL of DMF/H2O (v:v=1:1) at room temperature, was added dropwise over 10 min, a solution of cross-linker 2 or 3 of FIG. 24 (12.7 μmol for nominal 20% of cross-linking and 31.8 μmol for nominal 50% of cross-linking, respectively) in nano-pure H2O. The reaction mixture was allowed to stir for 48 h at room temperature in the absence of light. […]

[3] = Fluorescence emission of photonic SCKs and cross-linkers as a function of solution pH; type: physicochemical
Experimental: The resulting micelle solution 2 was incubated with 6.25 mol % or 12.5 mol % of the diamino-terminated pyrazine, relative to the acrylic acid residues, with the addition of EDCI, to afford SCK 3 or 4 having different amounts of fluorophores incorporated into the shells and, therefore, different degrees of cross-linking. The reaction mixture solutions were dialyzed against nanopure water for […] to remove the urea by-products and any non-attached pyrazine fluorophores. The SCK dimensions were then measured by atomic force microscopy (AFM) and transmission electron microscopy (TEM). […] Dialysis of the SCK solutions against nanopure water (ca. pH 7) for 3 days and then partitioning into six vials, each containing 5 mL of 5 mM PBS at pH 4.5, 6.1, 8.0, 9.5, or 11.0, placed the SCKs into different pH environments for analysis of the effects on the SCK hydrodynamic diameters and on the fluorophore photophysical properties.
Covalent cross-linking between the pyrazine units and the PAA shells, thereby, affords photonic SCKs for potential pH sensing. Covalent cross-linking between pyrazine and PAA shells constitutes photonic SCKs for potential biomedical applications. We expected to observe the photophysical consequences of the deprotonated PAA shell from pH 4.5 to 9.5 and those of the PpHS core from pH 9.5 to 11. In order to test our hypothesis, UV-vis and fluorescence measurements were collected on the resulting SCK solutions over the pH range of 4.5 to 11.0 to determine the pyrazine concentration, and then normalize the concentration relative to the fluorescence intensity values (See, FIG. 8). […] To observe the photophysical properties of the photonic SCKs, the data for the pyrazines within the SCK shell layers were compared between the two SCKs having different degrees of pyrazine loading and also against the pyrazine cross-linker associated physically with PAA and as a small molecule in buffered solutions.
To a 50 mL RB flask equipped with a magnetic stir bar was added a solution of micelles in nanopure H2O (15.0 mL, 0.016 mmol of carboxylic acid residues). To this solution, was added a solution of 3,6-diamino-N^2,N^5-bis(2-aminoethyl)pyrazine-2,5-dicarboxamide (0.397 mg, 1.12 μmol (6.25 mol % relative to the acrylic acid residues) for 12.5% cross-linking extent; or 0.794 mg, 2.24 μmol (12.5 mol % relative to the acrylic acid residues) for 25% cross-linking extent) in 1 mL nanopure H2O. The reaction mixture was allowed to stir for 2 h at room temperature. To this solution was added, dropwise via a syringe pump over 1 h, a solution of 1-[3′-(dimethylamino)propyl]-3-ethylcarbodiimide methiodide (EDCI, 0.849 mg, 2.86 μmol for 12.5% cross-linking extent; or 1.70 mg, 5.72 μmol for 25% cross-linking extent) in nanopure H2O (1.0 mL) and the reaction mixture was further stirred for 16 h at room temperature. Finally, the reaction mixture was transferred to pre-soaked dialysis tubing (MWCO ca. 3,500 Da) and dialyzed against nanopure water for 3 d to remove the small molecule starting materials and by-products, and afford aqueous solutions of SCK 3 and 4. SCK solutions for DLS, UV-vis, and fluorescence studies were further partitioned into six vials each containing 5 mM PBS (with 5 mM NaCl) at pH values of 4.5, 6.1, 8.0, 9.5, and 11.
Preparation of shell cross-linked nanoparticles (SCK) from micelles: Micelle solution pH was adjusted between 5 and 6. An electronic pipette was used to add 6.25 mol % or 12.5 mol % of diamine-terminated cross-linker (from stock solution with concentration 2.392 mg/mL or 6.2957 mg/mL) to the micelle solution and let stir for 3 hrs. To this reaction mixture was added dropwise, via a metering pump, a solution of 1-[3-(dimethylamino)propyl]-3-ethylcarbodiimide methiodide dissolved in nanopure water (12.5 mol % or 25.0 mol %). […]

## carboxyseminaphthofluorescein [cSNARF®-1]
[1]
  I580/I640 ratio: greater than thirty

## Cl.Cl.NCCNC(=O)c1nc(N)c(C(=O)NCCN)nc1N [cross-linker 2]
[2]
  UV-Vis absorbance and fluorescence emission spectra variation: no apparent UV-Vis absorbance and fluorescence emission spectra variation

## Cl.Cl.NCCCOCCOCCOCCCNC(=O)c1nc(N)c(C(=O)NCCCOCCOCCOCCCN)nc1N [cross-linker 3]
[2]
  UV-Vis absorbance and fluorescence emission spectra variation: no apparent UV-Vis absorbance and fluorescence emission spectra variation

## Cl.Cl.NCCCOCCOCCOCCCNC(=O)c1nc(N)c(C(=O)NCCCOCCOCCOCCCN)nc1N [Photonic Cross-Linker Example 3, 3,6-diamino-N^2,N^5-bis(3-(2-(2-(3-aminopropoxy)ethoxy)ethoxy)propyl)pyrazine-2,5-dicarboxamide dihydrochloride]
[3]; as a function of increasing pH
  decrease in fluorescence: ca. 30%

## Cl.Cl.NCCNC(=O)c1nc(N)c(C(=O)NCCN)nc1N [Photonic Cross-Linker Example 2, 3,6-diamino-N^2,N^5-bis(2-aminoethyl)pyrazine-2,5-dicarboxamide dihydrochloride]
[3]; as a function of increasing pH
  change in fluorescence: less than 10%
[3]; solution pH 4.5
  Normalized percent increase in fluorescence: 100%
[3]; solution pH 6.1
  Normalized percent increase in fluorescence: 100%
[3]; solution pH 8.0
  Normalized percent increase in fluorescence: 100%
[3]; solution pH 9.5
  Normalized percent increase in fluorescence: 110%
[3]; solution pH 11.0
  Normalized percent increase in fluorescence: 100%
